In US20210070748A1, “INHIBITORS OF BRUTONS TYROSINE KINASE” (Pharmacyclics LLC, priority 2015, published 2021):

How the values were obtained:
BTK-WT = biological target: T1, BTK-WT (Homo sapiens, UniProt Q06187); assay: Btk in vitro inhibitory activity (one of Method A TR-FRET, Method B electrophoretic mobility shift, Method C radiometric filter binding); type: biochemical; details: D-compounds panel data; read-out: IC50 BTK-WT
T1 construct: purified from insect cells as a full-length construct containing an N-terminal 6X-His tag; His6 (N); made in house; host or cells: insect cells (baculovirus Sf21 in Method B)

ITK = biological target: T2, ITK (Homo sapiens, UniProt Q08881); assay: Inhibition of a panel of kinases, in vitro HotSpot kinase assay: ITK; type: biochemical; details: D-compounds panel data; 1 μM ATP
T2 sequence (Q08881 1-620): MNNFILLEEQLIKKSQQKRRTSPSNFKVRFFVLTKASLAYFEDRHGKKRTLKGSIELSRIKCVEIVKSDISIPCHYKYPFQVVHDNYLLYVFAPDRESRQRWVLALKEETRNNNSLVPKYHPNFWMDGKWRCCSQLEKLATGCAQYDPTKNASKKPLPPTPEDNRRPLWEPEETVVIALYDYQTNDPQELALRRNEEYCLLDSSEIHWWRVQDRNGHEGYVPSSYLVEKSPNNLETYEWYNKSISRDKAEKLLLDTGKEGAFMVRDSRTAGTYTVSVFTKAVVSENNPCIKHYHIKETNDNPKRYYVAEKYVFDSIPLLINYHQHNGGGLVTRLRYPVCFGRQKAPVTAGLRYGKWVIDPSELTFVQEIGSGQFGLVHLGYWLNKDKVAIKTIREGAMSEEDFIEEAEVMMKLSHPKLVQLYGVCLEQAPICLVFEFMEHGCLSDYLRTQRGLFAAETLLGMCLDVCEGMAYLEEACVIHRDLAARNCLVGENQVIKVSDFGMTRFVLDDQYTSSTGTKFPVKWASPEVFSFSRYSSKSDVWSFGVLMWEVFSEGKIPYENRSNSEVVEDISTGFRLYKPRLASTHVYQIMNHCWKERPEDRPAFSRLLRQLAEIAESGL
Description: The degree of inhibition of a panel of kinases is determined using the in vitro HotSpot kinase assay (purified enzymes, ^33P-ATP, an appropriate substrate and 1 μM ATP).

T1 sequence (Q06187 whole entry): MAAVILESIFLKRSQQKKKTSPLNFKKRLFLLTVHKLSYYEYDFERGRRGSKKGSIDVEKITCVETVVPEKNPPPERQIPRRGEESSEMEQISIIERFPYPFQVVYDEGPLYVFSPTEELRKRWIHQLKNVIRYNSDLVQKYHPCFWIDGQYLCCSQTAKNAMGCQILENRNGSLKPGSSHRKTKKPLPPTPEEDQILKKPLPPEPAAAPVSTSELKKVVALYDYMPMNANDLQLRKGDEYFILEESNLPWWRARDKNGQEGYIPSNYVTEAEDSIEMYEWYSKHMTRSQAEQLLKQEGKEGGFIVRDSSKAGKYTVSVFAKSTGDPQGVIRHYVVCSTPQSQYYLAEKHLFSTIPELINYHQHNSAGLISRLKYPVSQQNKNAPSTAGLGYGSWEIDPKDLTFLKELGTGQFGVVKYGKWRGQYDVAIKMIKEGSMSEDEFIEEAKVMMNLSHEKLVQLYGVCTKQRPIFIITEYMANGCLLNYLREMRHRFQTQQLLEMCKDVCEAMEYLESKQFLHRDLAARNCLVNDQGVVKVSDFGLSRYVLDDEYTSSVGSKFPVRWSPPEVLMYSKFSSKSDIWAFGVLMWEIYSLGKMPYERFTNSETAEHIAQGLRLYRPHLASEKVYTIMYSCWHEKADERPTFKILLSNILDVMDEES

Row | SMILES | IC50 (BTK-WT) | IC50 (ITK)
1 | CC(C)n1nnc2cc(C(=O)N[C@@H]3CCCN(c4cnc(C(N)=O)c(Nc5cnn(C)c5)n4)[C@@H]3C)ccc21 [Example D-255, N-[(2R,3R)-1-{5-carbamoyl-6-[(1-methyl-i H-pyrazol-4-yl)amino]pyrazin-2-yl}-2-methylpiperidin-3-yl]-1-(propan-2-yl)-1H-1,2,3-benzotriazole-5-carboxamide] | ≤ 10 nM | 100 to 1000 nM
2 | C[C@@H]1[C@H](NC(=O)c2ccc(C3CC3)cc2Cl)CCCN1c1cnc(C(N)=O)c(Nc2cnn(C)c2)n1 [Example D-20, 5-[(2R,3R)-3-(2-chloro-4-cyclopropylbenzamido)-2-methylpiperidin-1-yl]-3-[(1-methyl-1H-pyrazol-4-yl)amino]pyrazine-2-carboxamide] | ≤ 10 nM | 1000 to 10000 nM
3 | CCOCCOc1ccc(Nc2nc(N3CCC[C@@H](NC(=O)c4ccc(C5CC5)cc4)[C@H]3C)cnc2C(N)=O)cc1 [Example D-299, 5-[(2R,3R)-3-(4-cyclopropylbenzamido)-2-methylpiperidin-1-yl]-3-{[4-(2-ethoxyethoxy)phenyl]amino}pyrazine-2-carboxamide] | 10 to 100 nM | > 10000 nM
4 | CC(=O)N1CCC(n2cc(Nc3nc(N4CCC[C@@H](NC(=O)c5ccc(C6CC6)cc5)[C@H]4C)cnc3C(N)=O)cn2)CC1 [Example D-283, 3-{[1-(1-acetylpiperidin-4-yl)-1H-pyrazol-4-yl]amino}-5-[(2R,3R)-3-(4-cyclopropylbenzamido)-2-methylpiperidin-1-yl]pyrazine-2-carboxamide] | ≤ 10 nM | 100 to 1000 nM
5 | C[C@@H]1[C@H](NC(=O)N(C)C)CCCN1c1nnc(C(N)=O)c(Nc2cnn(C)c2)n1 [Example D-286, 3-[(2R,3R)-3-[(dimethylcarbamoyl)amino]-2-methylpiperidin-1-yl]-5-[(1-methyl-1H-pyrazol-4-yl)amino]-1,2,4-triazine-6-carboxamide] | ≤ 10 nM | 10 to 100 nM
6 | C[C@@H]1[C@H](NC(=O)c2ccc(C3CC3)cc2)CCCN1c1cnc(C(N)=O)c(Nc2cnn(C3CCN(C(=O)C4(C)COC4)CC3)c2)n1 [Example D-289, 5-[(2R,3R)-3-(4-cyclopropylbenzamido)-2-methylpiperidin-1-yl]-3-({1-[1-(3-methyloxetane-3-carbonyl)piperidin-4-yl]-1H-pyrazol-4-yl}amino)pyrazine-2-carboxamide] | ≤ 10 nM | 10 to 100 nM
7 | C[C@@H]1[C@H](NC(=O)c2ccc(C3COC3)cc2)CCCN1c1cnc(C(N)=O)c(Nc2cnn(C)c2)n1 [Example D-23, 3-[(1-methyl-1H-pyrazol-4-yl)amino]-5-[(2R,3R)-2-methyl-3-[4-(oxetan-3-yl)benzamido]piperidin-1-yl]pyrazine-2-carboxamide] | ≤ 10 nM | 100 to 1000 nM
8 | C[C@@H]1[C@H](NC(=O)c2coc(C3CC3)n2)CCCN1c1cnc(C(N)=O)c(Nc2cnn(C)c2)n1 [Example D-257, 5-[(2R,3R)-3-(2-cyclopropyl-1,3-oxazole-4-amido)-2-methylpiperidin-1-yl]-3-[(1-methyl-1H-pyrazol-4-yl)amino]pyrazine-2-carboxamide] | ≤ 10 nM | 100 to 1000 nM
9 | C[C@@H]1[C@H](NC(=O)c2ccc(C(C)(C)C)cc2)CCCN1c1nnc(C(N)=O)c(Nc2cnn(C)c2)n1 [Example D-285, 3-[(2R,3R)-3-(4-tert-butylbenzamido)-2-methylpiperidin-1-yl]-5-[(1-methyl-1H-pyrazol-4-yl)amino]-1,2,4-triazine-6-carboxamide] | ≤ 10 nM | 10 to 100 nM
10 | C[C@@H]1[C@H](NC(=O)c2cc(C(C)(C)C)on2)CCCN1c1cnc(C(N)=O)c(Nc2cnn(C)c2)n1 [Example D-247, 5-[(2R,3R)-3-(5-tert-butyl-1,2-oxazole-3-amido)-2-methylpiperidin-1-yl]-3-[(1-methyl-1H-pyrazol-4-yl)amino]pyrazine-2-carboxamide] | ≤ 10 nM | 100 to 1000 nM
11 | C[C@@H]1[C@H](NC(=O)N(C)C2CC2)CCCN1c1cnc(C(N)=O)c(Nc2cnn(C)c2)n1 [Example D-314, 5-[(2R,3R)-3-{[cyclopropyl(methyl)carbamoyl]amino}-2-methylpiperidin-1-yl]-3-[(1-methyl-1H-pyrazol-4-yl)amino]pyrazine-2-carboxamide] | ≤ 10 nM | 100 to 1000 nM
12 | C[C@@H]1[C@H](NC(=O)c2cc3n(n2)CCC3)CCCN1c1cnc(C(N)=O)c(Nc2cnn(C)c2)n1 [Example D-263, 3-[(1-methyl-1H-pyrazol-4-yl)amino]-5-[(2R,3R)-2-methyl-3-{4H,5H,6H-pyrrolo[1,2-b]pyrazole-2-amido}piperidin-1-yl]pyrazine-2-carboxamide] | ≤ 10 nM | 100 to 1000 nM
13 | CCN(C)C(=O)N[C@@H]1CCCN(c2cnc(C(N)=O)c(Nc3cnn(C)c3)n2)[C@@H]1C [Example D-304, 5-[(2R,3R)-3-{[ethyl(methyl)carbamoyl]amino}-2-methylpiperidin-1-yl]-3-[(1-methyl-1H-pyrazol-4-yl)amino]pyrazine-2-carboxamide] | ≤ 10 nM | 1000 to 10000 nM
